This assay deals with S1P1 (Homo sapiens, UniProt P21453). As to the kind of experiment: 35S-GTPyS binding assay. It is filed as biochemical. To be noted: membranes; 10µM S1P used as 100% maximum efficacy; 90 min at room temperature. On the procedure:
The effect of the compounds was measured using a 35S-GTPyS binding assay. Briefly, membranes were incubated in a buffer containing 20 mM HEPES pH 7.4, 100 mM NaCl, 10 mM MgCl2, 10µM GDP, 50µg/ml saponin and 0.2% fatty acid-free BSA at various concentrations (0.1nM-10µM) and 0.1nM 35S-GTPyS. 10µM S1P was used as 100% maximum efficacy. The assay was incubated for 90 min at room temperature with gentle mixing, and terminated by filtrating the reaction mixture through GF/C filter plates using the Manifold Filtration System. The filters were immediately washed with sodium phosphate pH 7.4 buffers. After drying the filter plate's scintillant liquid were added to each well and 35S-GTPyS binding was measured on a Trilux Scintillation Counter.

S1P1, sequence (P21453 whole entry, species assumed): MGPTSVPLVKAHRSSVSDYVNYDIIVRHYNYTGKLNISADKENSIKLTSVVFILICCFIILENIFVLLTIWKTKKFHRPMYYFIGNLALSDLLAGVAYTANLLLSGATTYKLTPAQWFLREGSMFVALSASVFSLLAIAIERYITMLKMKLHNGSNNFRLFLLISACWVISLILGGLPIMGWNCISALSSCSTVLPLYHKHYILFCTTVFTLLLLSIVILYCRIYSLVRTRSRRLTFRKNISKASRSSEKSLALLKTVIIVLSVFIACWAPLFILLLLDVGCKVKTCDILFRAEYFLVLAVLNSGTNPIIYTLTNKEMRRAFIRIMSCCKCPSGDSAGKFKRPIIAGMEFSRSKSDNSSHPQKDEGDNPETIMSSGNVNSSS

Broadly, the EC50 is the midpoint of the concentration-response curve. Lower therefore signals greater potency. With `Cc1cc(-c2noc(-c3nn(C)c4c3CCC(C)(C)C4)n2)cc(C)c1CCNC(=O)CN` [Example 2, N-1-(2-{2,6-dimethyl-4-[5-(1,6,6-trimethyl-4,5,6,7-tetrahydro-1H-indazol-3-yl)-1,2,4-oxadiazol-3-yl]phenyl}ethyl)glycinamide], the EC50 amounted to 1.99 nM.

With `Cc1cc(-c2noc(-c3nn(C)c4c3CCC(C)(C)C4)n2)cc(C)c1CCNCCn1cncn1` [Example 6, (2-{2,6-dimethyl-4-[5-(1,6,6-trimethyl-4,5,6,7-tetrahydro-1H-indazol-3-yl)-1,2,4-oxadiazol-3-yl]phenyl}ethyl)[2-(1H-1,2,4-triazol-1-yl)ethyl]amine], the response was half-maximal at 19.2 nM (EC50).

As to `Cc1cc(-c2noc(-c3nn(C)c4c3CCC(C)(C)C4)n2)cc(C)c1CCn1cncn1` [Example 16, 3-(3-{3,5-dimethyl-4-[2-(1H-1,2,4-triazol-1-yl)ethyl]phenyl}-1,2,4-oxadiazol-5-yl)-1,6,6-trimethyl-4,5,6,7-tetrahydro-1H-indazole], a half-maximal response (EC50) required 12.1 nM.

`Cc1cc(-c2noc(-c3nn(C)c4c3CCC(C)(C)C4)n2)cc(C)c1CCC(C)(C)O` [Example 17, 4-{2,6-dimethyl-4-[5-(1,6,6-trimethyl-4,5,6,7-tetrahydro-1H-indazol-3-yl)-1,2,4-oxadiazol-3-yl]phenyl}-2-methylbutan-2-ol] returned an EC50 of 37.5 nM.

In the case of `Cc1cc(-c2noc(-c3nn(C)c4c3CCC(C)(C)C4)n2)cc(C)c1CCP(=O)(O)O` [Example 21, (2-{2,6-dimethyl-4-[5-(1,6,6-trimethyl-4,5,6,7-tetrahydro-1H-indazol-3-yl)-1,2,4-oxadiazol-3-yl]phenyl}ethyl)phosphonic acid], the EC50 was found to be 3.08 nM.

In turn, `Cc1cc(-c2noc(-c3nn(C)c4c3CCC(C)(C)C4)n2)cc(C)c1CCn1cc(C(=O)O)cn1` [Example 22, 1-(2-{2,6-dimethyl-4-[5-(1,6,6-trimethyl-4,5,6,7-tetrahydro-1H-indazol-3-yl)-1,2,4-oxadiazol-3-yl]phenyl}ethyl)-1H-pyrazole-4-carboxylic acid] returned a 50% effective concentration (EC50) of 6.37 nM.

Molecule `Cc1cc(-c2noc(-c3nn(C)c4c3CCC(C)(C)C4)n2)cc(C)c1CCn1nccc1C(=O)O` [Example 24, 1-(2-{2,6-dimethyl-4-[5-(1,6,6-trimethyl-4,5,6,7-tetrahydro-1H-indazol-3-yl)-1,2,4-oxadiazol-3-yl]phenyl}ethyl)-1H-pyrazole-5-carboxylic acid] yielded a concentration giving a half-maximal response (EC50) of 10.3 nM.

For the origin of these results see EP2366702A1, “New oxadiazole derivatives” (Almirall, S.A., priority 2010, dated 2011).
